{"source": "paper PMC12106615", "about": "“Population pharmacokinetics of colistin sulfate in critically ill patients based on NONMEM” (Scientific Reports, 2025)", "key": {"[1]": {"experiment": "Clinical outcome (14-day mortality) of patients receiving intravenous colistin sulfate", "type": "in vivo, human", "conditions": "178 critically ill patients, mostly combination therapy", "source_text": "(§1) The retrospective study subjects were patients admitted to Beijing Electric Power Hospital, Beijing, China, between May 2022 and May 2024. The study design conformed to the principles of the Declaration of Helsinki, and the study was approved by the Ethics Research Committee of Beijing Electric Power Hospital (approval no: n090327). Written informed consent was obtained from all patients or their legal representatives. In clinical practice, adult patients who had received intravenous colistin sulfate (Specification: 0.5 MU; Asia Pioneer Pharmaceutical Co., Ltd., Shanghai, China) with at least one measurement of colistin sulfate concentration were eligible for inclusion. The inclusion criteria were as follows: (1) age ≥ 18 years, (2) patients who had received colistin sulfate treatment, and (3) patients with at least one measurement of colistin sulfate concentration. The exclusion criteria were as follows: (1) patients who died within 24 h after receiving colistin sulfate treatment, (2) patients who received nebulized colistin sulfate and intrathecal colistin sulfate, and (3) patients who also received continuous renal replacement therapy during colistin sulfate treatment. […] The RIFLE criteria (risk, injury, failure, loss, and end-stage kidney disease), estimated with exclusion of the urinary output criterion, were used for detection and stratification of acute kidney injury."}, "[2]": {"conditions": "previous studies; ref [14],[25]–[29]; cited from earlier work", "source_text": "Advanced age, the presence of multiple coexisting diseases, severe infections, low fluid replacement volume, and exposure to combination therapy with multiple drugs are recognized as risk factors for the development of acute kidney injury associated with colistin sulfate treatment. If colistin sulfate is the only factor considered, a Css level of ..."}, "[3]": {"conditions": "14 patients with successful treatment; ref Yu et al.[14]; cited from earlier work", "description": "The steady-state plasma concentration (Css.avg) of these 129 patients was 0.93 ± 0.35 mg/L, which was inconsistent with the value (2.0–2.4 mg/L) jointly recommended by the multidisciplinary expert consensus[17] on the rational clinical use of colistin in China. This consensus considered that the in vitro antimicrobial activit ..."}, "[4]": {"experiment": "Population pharmacokinetic (PPK) model of colistin sulfate, NONMEM, two-compartment with first-order elimination", "type": "in vivo, human", "description": "PPK analyses were performed using NONMEM version 7.5 (Icon Development Solutions, Ellicott City, MD, USA) and Pirana version 3.0. Ggplot2 version 3.5.1 package in R software (version 4.1.3, R-project.org) and Xpose version 4.3.2 packages were used to generate line plots and diagnostic plots, respectively.\nOne- and two-compartment structural models with first-order elimination characteristics of colistin sulfate were constructed using NONMEM software. Between-subject variability (BSV) was assessed using an exponential function. Within-subject variability (WSV) was assessed by additive, proportional, or combined (additive plus proportional) models, while model with the smallest variability represented the best ones. The base model was chosen according to diagnostic plots and goodness-of-fit criteria, including improvement of the OFV and precision and plausibility of parameter estimation. The factors influencing fixed effects were screened based on our previous study. Covariates were included in the base models in a stepwise manner, and testing was performed by using the following statistical criteria: ΔOFV > 3.84, P < 0.05. The covariate was considered to have a significant influence at ΔOFV > 3.84 and retained in the model or eliminated otherwise. All covariates with significant influence on models were then incorporated into the base models to construct full regression models. The full regression models were then subjected to reverse elimination. The included covariates were tested using stricter statistical criteria (ΔOFV > 6.63, P < 0.01), and covariates showing a small influence on the models were eliminated, thereby yielding the final model.\nGoodness-of-fit plots, nonparametric bootstrap, and pc-VPC were used to evaluate the final model and parameter estimates. A nonparametric bootstrap procedure was utilized to assess the performance and stability of the final model. Random sampling and individual replacement were used to generate 1000 replicate datasets. The median and 95% CI values of the final model parameters obtained using bootstrap validation were then compared, and the predictive performance of the model was validated. The dataset was simulated 1000 times using the $SIMULATION block in NONMEM. The 90% CI values for the 5 th, 50 th, and 95 th percentiles of the simulated concentrations were calculated. The time curves were then plotted after the last dose and compared with the observed concentrations for prediction and variability correction using pc-VPC."}, "[5]": {"experiment": "Nephrotoxicity / acute kidney injury by RIFLE criteria", "type": "in vivo, human", "conditions": "178 critically ill patients, empirical intravenous colistin sulfate; RIFLE criteria without urinary output criterion", "source_text": "as §1"}, "[6]": {"conditions": "178 critically ill patients, 364 concentrations, intravenous"}, "[7]": {"conditions": "nonparametric bootstrap, 1000 replicate datasets"}}, "note": "Where a name gives a salt, the structure may show the parent alone. Bridge positions count the residues as written; N and C are the ends. Square brackets hold non-standard residues; d marks the D form. Peptide text beside a SMILES is read from it. * marks the point of attachment. X1 = CC[C@H](C)CCCCC(=O)*; Dab = NCC[C@H](N)C(=O)O"}
{"compound": "CC[C@H](C)CCCCC(=O)N[C@@H](CCN)C(=O)N[C@H](C(=O)N[C@@H](CCN)C(=O)N[C@H]1CCNC(=O)[C@H]([C@@H](C)O)NC(=O)[C@H](CCN)NC(=O)[C@H](CCN)NC(=O)[C@H](CC(C)C)NC(=O)[C@@H](CC(C)C)NC(=O)[C@H](CCN)NC1=O)[C@@H](C)O", "note": "[colistin sulfate] (X1-[Dab]T[Dab][Dab][Dab][dL]L[Dab][Dab]T; lactam 4-C)", "values": [{"measurement": "14-day mortality rate", "setting": "[1]", "result": 27.53, "unit": "%"}, {"measurement": "Incidence rate of nephrotoxicity induced by colistin sulfate", "setting": "[2]", "result": "less than 21.25%"}, {"measurement": "Css.avg of colistin sulfate", "setting": "[3]", "result": "1730 ± 980", "unit": "ng/mL"}, {"measurement": "tvQ, typical value of inter-compartmental clearance, final model estimate", "setting": "[4]; [6]", "result": 1.63, "unit": "L/h"}, {"measurement": "tvV2, typical value of volume of peripheral compartment distribution, final model estimate", "setting": "[4]; [6]", "result": 109, "unit": "L"}, {"measurement": "tvV1, typical value of volume of central compartment distribution, final model estimate", "setting": "[4]; 178 critically ill patients, 364 concentrations, intravenous, weight as covariate", "result": 49.7, "unit": "L"}, {"measurement": "dVdWT, exponential parameter coefficient of WT to V1, final model estimate", "setting": "[4]; final PPK model", "result": 1.2}, {"measurement": "clearance", "setting": "[4]; human, plasma, 178 critically ill patients, 364 concentrations, intravenous, CrCL as covariate, read-out: tvCL, typical value of central compartment clearance, final model estimate (converted)", "result": 44.3, "unit": "mL/min"}, {"measurement": "dCLdCrCL, bootstrap median", "setting": "[4]; [7]", "result": 0.466}, {"measurement": "dVdWT, bootstrap median", "setting": "[4]; [7]", "result": 1.28}, {"measurement": "tvCL, bootstrap median", "setting": "[4]; [7]", "result": 2.67, "unit": "L/h"}, {"measurement": "tvQ, bootstrap median", "setting": "[4]; [7]", "result": 1.67, "unit": "L/h"}, {"measurement": "tvV1, bootstrap median", "setting": "[4]; [7]", "result": 50.04, "unit": "L"}, {"measurement": "tvV2, bootstrap median", "setting": "[4]; [7]", "result": 103.65, "unit": "L"}, {"measurement": "Acute kidney injury (nephrotoxicity) incidence", "setting": "[5]", "result": 11.8, "unit": "%"}]}
